Legend:
HPK1 [1] = target: T1, HPK1 (Homo sapiens, UniProt Q92918); assay: Western blot analysis of endogenous HPK1 level in Jurkat T cells; type: cell-based; conditions: for reducing HPK1 protein levels: characterization of exemplary degraders (FIGS. 1-14)
T1 construct: endogenous in cells; host or cells: Jurkat T cells

CD4+ T cells = assay: CD28-independent IL-2 production by CD4+ T cells; type: cell-based; conditions: fixed concentration of plate-bound antibody, varying concentrations of soluble anti-CD28 mAb (FIG. 6)
primary murine T cells = assay: IL-2 production by primary murine T cells; type: cell-based, mouse
Protocol: (§1) EXAMPLE 348. Several compounds according to the present invention employing the indolin-2-one HPK1 binding base, (which henceforth shall be referred to as the HC58 series, the HC65 series and the HC75 series) were assessed on their abilities to degrade HPK1 and produce an elevated IL-2 response profile upon stimulation by anti-CD3- and anti-CD28-mAb-mediated (CD3XCD28) stimulation (FIGS. 1-4). The elevated IL-2 response profile induced by TCR engagement after exposure to HC58 series of HPK1 degraders is shown in FIG. 1. […] A select sub-set of the lead HPK1 degraders from the HC58 series were further characterized to determine whether they could degrade primary mouse T cells.

[2] = system: CD4+ primary murine T cells; assay: CD28-independent IL-2 production by CD4+ primary murine T cells (IL-2 ELISA); type: cell-based, mouse; conditions: 500 nM, plate-bound anti-CD3 mAb 5 μg/mL, varying soluble anti-CD28 mAb
Protocol: EXAMPLE 34. I was observed that HPK1^−/− T cells, unlike their wild type counterparts, could readily produce IL-2 in response to CD3 □ crosslinking alone (data not shown). To assess whether HPK1 degraders could confer the same ability to produce IL-2 in a CD28-independent manner, CD4^+ primary murine T cells prepared as described in FIG. 5 were treated with 500 nM of HC58-75 HPK1 degrader or DMSO or Pomalidomide as controls. Their abilities to produce IL-2 in response a fixed concentration of plate-bound anti-CD3[…] mAb (5 μg/mL) in conjunction with varying soluble concentration of anti-CD28 mAb was then assessed.

HPK1 [3] = target: T2, HPK1 (Mus musculus, UniProt P70218); assay: HPK1 degradation in primary mouse T cells; type: cell-based; conditions: 300 nM
T2 construct: HPK1 degraders could effectively degrade endogenous HPK1 in murine T cells; endogenous in cells; host or cells: primary mouse T cells
T2 sequence (P70218 1-827): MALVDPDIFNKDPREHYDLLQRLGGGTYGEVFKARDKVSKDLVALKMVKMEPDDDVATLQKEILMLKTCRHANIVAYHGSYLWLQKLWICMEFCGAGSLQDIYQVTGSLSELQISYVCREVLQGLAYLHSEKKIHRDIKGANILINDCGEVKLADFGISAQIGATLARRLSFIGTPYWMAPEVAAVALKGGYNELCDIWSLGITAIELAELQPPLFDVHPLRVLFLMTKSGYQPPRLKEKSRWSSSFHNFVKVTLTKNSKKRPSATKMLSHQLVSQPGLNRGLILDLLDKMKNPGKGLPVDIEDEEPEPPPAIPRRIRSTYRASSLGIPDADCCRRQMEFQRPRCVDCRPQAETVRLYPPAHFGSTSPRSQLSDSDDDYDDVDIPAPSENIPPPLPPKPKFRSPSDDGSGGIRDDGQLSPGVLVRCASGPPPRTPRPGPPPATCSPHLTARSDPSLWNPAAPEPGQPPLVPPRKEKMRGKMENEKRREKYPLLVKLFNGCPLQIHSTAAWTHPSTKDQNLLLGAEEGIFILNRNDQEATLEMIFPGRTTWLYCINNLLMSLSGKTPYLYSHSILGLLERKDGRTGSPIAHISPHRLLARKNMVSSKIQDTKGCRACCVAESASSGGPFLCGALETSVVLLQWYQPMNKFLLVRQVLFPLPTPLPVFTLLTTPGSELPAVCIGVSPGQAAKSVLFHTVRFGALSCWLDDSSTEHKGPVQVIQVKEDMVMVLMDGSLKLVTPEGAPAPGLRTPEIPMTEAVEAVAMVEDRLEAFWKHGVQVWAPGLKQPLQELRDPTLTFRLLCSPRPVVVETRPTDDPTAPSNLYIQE
Protocol: as §1
EXAMPLE 353. HPK1 is expressed in all hematopoietic cells examined to date, including T cells, B cells, dendritic cells and neutrophils. Because the breath of therapeutic approaches might involve the use of Chimeric Antigen Receptor (CAR) T cells, dendritic cells, TCR transgenic T cells and Tumor Infiltrating Lymphocytes (TILs), selected HPK1 degraders were evaluated to determine whether they could degrade HPK1 effectively in some of these cell types. […] Potent degradation of HPK1 by HPK1 degraders was also observed in the human DC1 dendritic cells.

Jurkat T cells = assay: IL-2 production by Jurkat cells on CD3XCD28 stimulation (IL-2 ELISA); type: cell-based, human; conditions: wider ranges of compound concentrations
Protocol: as §1
EXAMPLE 351. […] Furthermore, compound HC58-78 and HC90-50 were also assessed for their abilities to enhance the CD3XCD28-induced IL-2 response by primary human PBMC (FIG. 10).
For the synthesis of intermediates and examples (1-89) below, HPLC spectra for all compounds were acquired using an Agilent 1200 Series system with DAD detector. […] Clone E6-1 cells is a preferred cellular platform for studying T cell activation in response to T cell receptor engagement because it produces the cytokine IL-2, which could be used as proxy readout for the level of T cell activation. […]

human PBMCs = assay: Intracellular IFNγ and TNFα staining of human PBMC (FACS); type: cell-based; conditions: in combination with blinatumomab
Excerpt: EXAMPLE 355. One of the mechanisms employed by PBMC to kill their target cells is by releasing IFNγ and TNFα production. These inflammatory cytokines are known have potent cytolytic effects on cancer cells. […] Mediated PBMC killing of the Raji cells is most evident at PBMC:Raji ratio of 5:1 (FIG. 13).
To determine the number of CD19^+ Raji cells killed by human PBMC that were activated by the Blinatumomab-mediated activation, we used CountBright cell counting beads to estimate the number of cells remained after 72 hours of co-culturing of PBMC and Raji. As for the intracellular staining of the TNFα and the IFNγ, the standard para-formaldehyde-based “fix and perm” procedure was used in order to quantitate the amount of intracellular cytokine trapped inside the cells by brefeldin A. FACS analysis of stained cells is performed by BD's LSR II FACS.

T1 sequence (Q92918 whole entry): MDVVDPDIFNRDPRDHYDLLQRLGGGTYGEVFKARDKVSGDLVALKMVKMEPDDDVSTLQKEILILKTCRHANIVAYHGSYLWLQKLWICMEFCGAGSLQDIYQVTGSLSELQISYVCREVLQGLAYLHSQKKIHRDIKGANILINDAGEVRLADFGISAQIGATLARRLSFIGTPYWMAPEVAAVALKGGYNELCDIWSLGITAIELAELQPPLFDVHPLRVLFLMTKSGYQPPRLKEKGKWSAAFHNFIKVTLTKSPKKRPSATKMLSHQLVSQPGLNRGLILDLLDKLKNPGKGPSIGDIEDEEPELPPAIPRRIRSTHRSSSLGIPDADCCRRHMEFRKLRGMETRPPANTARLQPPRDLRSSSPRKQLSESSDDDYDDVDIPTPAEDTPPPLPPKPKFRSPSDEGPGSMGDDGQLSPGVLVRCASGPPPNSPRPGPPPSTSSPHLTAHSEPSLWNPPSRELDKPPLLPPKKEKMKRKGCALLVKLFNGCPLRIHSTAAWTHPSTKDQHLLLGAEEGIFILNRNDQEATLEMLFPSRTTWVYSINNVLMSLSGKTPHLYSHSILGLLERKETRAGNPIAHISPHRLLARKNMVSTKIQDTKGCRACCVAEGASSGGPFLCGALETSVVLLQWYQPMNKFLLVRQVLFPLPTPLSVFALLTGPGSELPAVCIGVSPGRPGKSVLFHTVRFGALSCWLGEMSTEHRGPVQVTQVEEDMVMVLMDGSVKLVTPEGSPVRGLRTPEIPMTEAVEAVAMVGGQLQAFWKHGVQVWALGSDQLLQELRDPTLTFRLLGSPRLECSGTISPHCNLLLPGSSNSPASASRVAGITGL

Cc1[nH]c(/C=C2\C(=O)Nc3ccc(F)cc32)c(C)c1C(=O)NCCCN1CCN(C(=O)CCCCNc2cccc3c2C(=O)N(C2CCC(=O)NC2=O)C3=O)CC1 (stereo not shown) [HC58-38, (Z)—N-(3-(4-(5-((2-(2,6-dioxopiperidin-3-yl)-1,3-dioxoisoindolin-4-yl)amino)pentanoyl)piperazin-1-yl)propyl)-5-((5-fluoro-2-oxoindolin-3-ylidene)methyl)-2,4-dimethyl-1H-pyrrole-3-carboxamide]
reducing HPK1 protein levels (HPK1 [1]): especially effective in reducing HPK1 protein levels

Cc1[nH]c(/C=C2\C(=O)Nc3ccc(F)cc32)c(C)c1C(=O)NCCCN1CCN(CC(=O)NCCCCCNc2cccc3c2C(=O)N(C2CCC(=O)NC2=O)C3=O)CC1 (stereo not shown) [HC58-75, (Z)—N-(3-(4-(2-((5-((2-(2,6-dioxopiperidin-3-yl)-1,3-dioxoisoindolin-4-yl)amino)pentyl)amino)-2-oxoethyl)piperazin-1-yl)propyl)-5-((5-fluoro-2-oxoindolin-3-ylidene)methyl)-2,4-dimethyl-1H-pyrrole-3-carboxamide]
endogenous level of HPK1 (HPK1 [1]; Jurkat T cells, multiple day post exposure (FIG. 3)): could reduce the endogenous level of HPK1
reducing HPK1 protein levels (HPK1 [1]): especially effective in reducing HPK1 protein levels
CD28-independent IL-2 production (CD4+ T cells): CD28-independent IL-2 production
IL-2 production compared with the DMSO-treated counterpart (primary murine T cells): produced more IL-2 than the DMSO-treated counterpart
IL-2 production without CD28 co-receptor engagement [2]: could produce IL-2 without the help of CD28 co-receptor engagement

Cc1[nH]c(/C=C2\C(=O)Nc3ccc(F)cc32)c(C)c1C(=O)NCCCN1CCN(CC(=O)NCCCCCCNc2cccc3c2C(=O)N(C2CCC(=O)NC2=O)C3=O)CC1 (stereo not shown) [HC58-76, (Z)—N-(3-(4-(2-((6-((2-(2,6-dioxopiperidin-3-yl)-1,3-dioxoisoindolin-4-yl)amino)hexyl)amino)-2-oxoethyl)piperazin-1-yl)propyl)-5-((5-fluoro-2-oxoindolin-3-ylidene)methyl)-2,4-dimethyl-1H-pyrrole-3-carboxamide]
reducing HPK1 protein levels (HPK1 [1]): especially effective in reducing HPK1 protein levels
degradation of HPK1 protein in primary T cells compared with Jurkat T cells (HPK1 [3]): could degrade more HPK1 protein in primary T cells than in Jurkat T cells

COc1cccc(F)c1-c1ncc2[nH]nc(-c3ccc(N4CCN(C(=O)CCNc5cccc6c5C(=O)N(C5CCC(=O)NC5=O)C6=O)CC4)cc3)c2n1 (stereo not shown) [HC90-50, 2-(2,6-dioxopiperidin-3-yl)-4-((3-(4-(4-(5-(2-fluoro-6-methoxyphenyl)-1H-pyrazolo[4,3-d]pyrimidin-3-yl)phenyl)piperazin-1-yl)-3-oxopropyl)amino)isoindoline-1,3-dione]
reducing HPK1 protein levels (HPK1 [1]): especially effective in reducing HPK1 protein levels
IL-2 response profile, rank within the HC90 series (Jurkat T cells): top two compounds from the HC90 series
percentage of human PBMCs that express high level of IFNγ and TNFα (human PBMCs): significantly increased

COc1cccc(F)c1-c1ncc2[nH]nc(-c3ccc(N4CCN(C(=O)CCCNc5cccc6c5C(=O)N(C5CCC(=O)NC5=O)C6=O)CC4)cc3)c2n1 (stereo not shown) [HC90-51, 2-(2,6-dioxopiperidin-3-yl)-4-((4-(4-(4-(5-(2-fluoro-6-methoxyphenyl)-1H-pyrazolo[4,3-d]pyrimidin-3-yl)phenyl)piperazin-1-yl)-4-oxobutyl)amino)isoindoline-1,3-dione]
reducing HPK1 protein levels (HPK1 [1]): especially effective in reducing HPK1 protein levels
IL-2 response profile, rank within the HC90 series (Jurkat T cells): top two compounds from the HC90 series

Source: patent publication US12465648B2, “Heterobifunctional compounds as degraders of HPK1” (ICAHN SCHOOL OF MEDICINE AT MOUNT SINAI, priority 2019, dated 2025)
